# Measurements published in publication PMC5122887, “Identification of ER-000444793, a Cyclophilin D-independent inhibitor of mitochondrial permeability transition, using a high-throughput screen in cryopreserved mitochondria” (Scientific Reports, 2016).
# Molecular target: T1, Cyclophilin D (CypD; rhCypD) (Homo sapiens, UniProt P30405)
# T1 construct: gene PPIF; amino acids 44 to 207 of full length human CypD, C-terminal His-tag
# Experiment: HTRF/TR-FRET displacement of CsA-d2 from His-tagged rhCypD; also inhibits PPIase activity (IC50 […])
# Type: binding
# T1 sequence (P30405 44-207): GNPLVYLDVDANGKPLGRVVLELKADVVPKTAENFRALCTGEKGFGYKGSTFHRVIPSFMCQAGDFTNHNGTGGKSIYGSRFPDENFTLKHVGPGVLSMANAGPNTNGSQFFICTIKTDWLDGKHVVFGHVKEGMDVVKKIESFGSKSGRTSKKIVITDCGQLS
structure (smiles),measurement,value
"CC[C@H]1C[C@H](C)[C@@]2(NC1=O)O[C@@H](C[C@H](O)[C@@H](C)CC/C=C/C=C(\C)[C@@H]1C/C=C/C=C/[C@H](O)[C@H](C)[C@@H](O)[C@@H](CCC(C)=O)C(=O)N[C@@H](C(C)C)C(=O)N[C@@H](Cc3cccc(O)c3)C(=O)N3CCC[C@H](N3)C(=O)O1)[C@H](C)[C@H](O)[C@@H]2C [SfA, sanglifehrin A]",IC50,5 nM
